Laboratory results reported in PubChem BioAssay AID2060503 (Molecular Pharmacology Branch, DTP, NCI, 2025).

Test system: 817829-284-R-J1-PDC complex spheroids, viability
Test: Anticancer human tumor 817829-284-R-J1-PDC patient-derived colon adenocarcinoma cell line growth inhibition [GQUAD]
Details: for IC50: curve of first compound; for viability, T/C: stronger effect = lower value
Summary of the method: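 Viability of tumor cells grown as complex spheroids with endothelial and stromal cells, exposed to drug combinations. Top concentration at or near clinical Cmax (else 10 microM), diluted in half-log increments.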

[1] = second compound 0.0316 µM, first compound 0.0316 µM
[2] = second compound 0.0316 µM, first compound 0.1 µM
[3] = second compound 0.0316 µM, first compound 0.316 µM
[4] = second compound 0.0316 µM, first compound 1 µM
[5] = second compound 0.0316 µM, first compound 3.16 µM
[6] = second compound 0.0316 µM, first compound 10 µM
[7] = second compound 0.1 µM, first compound 0.0316 µM
[8] = second compound 0.1 µM, first compound 0.1 µM
[9] = second compound 0.1 µM, first compound 0.316 µM
[10] = second compound 0.1 µM, first compound 1 µM
[11] = second compound 0.1 µM, first compound 3.16 µM
[12] = second compound 0.1 µM, first compound 10 µM
[13] = second compound 0.316 µM, first compound 0.0316 µM
[14] = second compound 0.316 µM, first compound 0.1 µM
[15] = second compound 0.316 µM, first compound 0.316 µM
[16] = second compound 0.316 µM, first compound 1 µM
[17] = second compound 0.316 µM, first compound 3.16 µM
[18] = second compound 0.316 µM, first compound 10 µM
[19] = second compound 1 µM, first compound 0.0316 µM
[20] = second compound 1 µM, first compound 0.1 µM
[21] = second compound 1 µM, first compound 0.316 µM
[22] = second compound 1 µM, first compound 1 µM
[23] = second compound 1 µM, first compound 3.16 µM
[24] = second compound 1 µM, first compound 10 µM
[25] = second compound 3.16 µM, first compound 0.0316 µM
[26] = second compound 3.16 µM, first compound 0.1 µM
[27] = second compound 3.16 µM, first compound 0.316 µM
[28] = second compound 3.16 µM, first compound 1 µM
[29] = second compound 3.16 µM, first compound 3.16 µM
[30] = second compound 3.16 µM, first compound 10 µM
[31] = second compound 10 µM, first compound 0.0316 µM
[32] = second compound 10 µM, first compound 0.1 µM
[33] = second compound 10 µM, first compound 0.316 µM
[34] = second compound 10 µM, first compound 1 µM
[35] = second compound 10 µM, first compound 3.16 µM
[36] = second compound 10 µM, first compound 10 µM
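Further: spheroids exposed to agents for 7 days before readout.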
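Wherever viability, T/C is given: percent viability relative to DMSO vehicle control taken as 100%.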

`COc1ccc([C@@H](O)c2cc(-c3ncnc4cc(N5CCOCC5)ccc34)c(F)cc2Cl)nn1` + Cc1cnc(CNC(=O)c2c(=O)c3ccc(N4CCCN(C)CC4)nc3n3c2sc2ccccc23)cn1 showed an IC50 (second compound 0.0316 µM) of 239 nM, an IC50 (second compound 0.1 µM) of under 31.6 nM and an IC50 (second compound 0.316 µM) of under 31.6 nM. The IC50 (second compound 1 µM) was under 31.6 nM, the IC50 (second compound 3.16 µM) was under 31.6 nM and the IC50 (second compound 10 µM) was under 31.6 nM. For the same molecule, the viability, T/C [1] was 81.7%, the viability, T/C [2] was 75.5% and the viability, T/C [3] was 41%. For the same molecule, the viability, T/C [4] was 31.2%, the viability, T/C [5] was 27.9% and the viability, T/C [6] was 20.9%. The viability, T/C [7] was 42%, the viability, T/C [8] was 37.5% and the viability, T/C [9] was 31.9%. For the same molecule, the viability, T/C [10] was 24.2%, the viability, T/C [11] was 24.2% and the viability, T/C [12] was 19.3%. The viability, T/C [13] was 27.7%, the viability, T/C [14] was 29.7% and the viability, T/C [15] was 24%. The viability, T/C [16] was 22%, the viability, T/C [17] was 22.8% and the viability, T/C [18] was 18%. It also gave a viability, T/C [19] of 25.1%, a viability, T/C [20] of 25.6% and a viability, T/C [21] of 25.1%. It also gave a viability, T/C [22] of 17.7%, a viability, T/C [23] of 18.2% and a viability, T/C [24] of 12.7%. For the same molecule, the viability, T/C [25] was 21.2%, the viability, T/C [26] was 22.7% and the viability, T/C [27] was 21.6%. The viability, T/C [28] was 17%, the viability, T/C [29] was 15% and the viability, T/C [30] was 8.95%. The viability, T/C [31] was 0.12%, the viability, T/C [32] was 0.16% and the viability, T/C [33] was 0.18%. For the same molecule, the viability, T/C [34] was 0.23%, the viability, T/C [35] was 0.2% and the viability, T/C [36] was 0.19%.
With `Cc1cccc(N(C)C(=O)C2C(O)CCN2c2nc(C)cc(C(F)(F)F)c2C#N)c1` (stereo unspecified) + CN(C)c1ccc(Nc2c3ccc(NC(=O)CCN4CCCC4)cc3nc3cc(NC(=O)CCN4CCCC4)ccc23)cc1 the IC50 (second compound 0.0316 µM) was over 10000 nM, the IC50 (second compound 0.1 µM) was over 10000 nM and the IC50 (second compound 0.316 µM) was over 10000 nM. The IC50 (second compound 1 µM) was over 10000 nM, the IC50 (second compound 3.16 µM) was over 10000 nM and the IC50 (second compound 10 µM) was 4030 nM. The viability, T/C [1] was 101%, the viability, T/C [2] was 102% and the viability, T/C [3] was 92.5%. It also gave a viability, T/C [4] of 90%, a viability, T/C [5] of 92.8% and a viability, T/C [6] of 85.4%. It also gave a viability, T/C [7] of 89.3%, a viability, T/C [8] of 109% and a viability, T/C [9] of 90.1%. For the same molecule, the viability, T/C [10] was 112%, the viability, T/C [11] was 93.3% and the viability, T/C [12] was 79.9%. The viability, T/C [13] was 99.3%, the viability, T/C [14] was 96.8% and the viability, T/C [15] was 90.6%. It also gave a viability, T/C [16] of 93.1%, a viability, T/C [17] of 99.4% and a viability, T/C [18] of 90.8%. It also gave a viability, T/C [19] of 95.5%, a viability, T/C [20] of 88.2% and a viability, T/C [21] of 90.5%. It also gave a viability, T/C [22] of 83.7%, a viability, T/C [23] of 94% and a viability, T/C [24] of 81%. It also gave a viability, T/C [25] of 99.6%, a viability, T/C [26] of 99.3% and a viability, T/C [27] of 94.3%. It also gave a viability, T/C [28] of 91.8%, a viability, T/C [29] of 111% and a viability, T/C [30] of 82.1%. It also gave a viability, T/C [31] of 97.7%, a viability, T/C [32] of 88.7% and a viability, T/C [33] of 85.7%. The viability, T/C [34] was 69.4%, the viability, T/C [35] was 52.2% and the viability, T/C [36] was 40.2%.
With `CCc1c2c(nc3ccc(O)cc13)-c1cc3c(c(=O)n1C2)COC(=O)[C@]3(O)CC` + Cc1[nH]c2ccc(F)cc2c1-c1nc2c3cccnc3c3ncccc3c2[nH]1 the IC50 (second compound 0.0316 µM) was 1.74 nM, the IC50 (second compound 0.1 µM) was 1.01 nM and the IC50 (second compound 0.316 µM) was under 0.999 nM. It also gave an IC50 (second compound 1 µM) of under 0.999 nM, an IC50 (second compound 3.16 µM) of under 0.999 nM and an IC50 (second compound 10 µM) of under 0.999 nM. The viability, T/C (second compound 0.0316 µM, first compound 0.000999 µM) was 65.2%, the viability, T/C (second compound 0.0316 µM, first compound 0.00316 µM) was 28.1% and the viability, T/C (second compound 0.0316 µM, first compound 0.00999 µM) was 30.3%. The viability, T/C [1] was 13.1%, the viability, T/C (second compound 0.0316 µM, first compound 0.0999 µM) was 8.01% and the viability, T/C [3] was 4.19%. It also gave a viability, T/C (second compound 0.1 µM, first compound 0.000999 µM) of 51.3%, a viability, T/C (second compound 0.1 µM, first compound 0.00316 µM) of 33.6% and a viability, T/C (second compound 0.1 µM, first compound 0.00999 µM) of 27.8%. The viability, T/C [7] was 14.9%, the viability, T/C (second compound 0.1 µM, first compound 0.0999 µM) was 9.56% and the viability, T/C [9] was 4.38%. For the same molecule, the viability, T/C (second compound 0.316 µM, first compound 0.000999 µM) was 43.5%, the viability, T/C (second compound 0.316 µM, first compound 0.00316 µM) was 35.6% and the viability, T/C (second compound 0.316 µM, first compound 0.00999 µM) was 23.6%. For the same molecule, the viability, T/C [13] was 16.7%, the viability, T/C (second compound 0.316 µM, first compound 0.0999 µM) was 8.62% and the viability, T/C [15] was 5.24%. It also gave a viability, T/C (second compound 1 µM, first compound 0.000999 µM) of 43%, a viability, T/C (second compound 1 µM, first compound 0.00316 µM) of 30.6% and a viability, T/C (second compound 1 µM, first compound 0.00999 µM) of 24.6%. It also gave a viability, T/C [19] of 15%, a viability, T/C (second compound 1 µM, first compound 0.0999 µM) of 8.8% and a viability, T/C [21] of 4.41%. The viability, T/C (second compound 3.16 µM, first compound 0.000999 µM) was 30.3%, the viability, T/C (second compound 3.16 µM, first compound 0.00316 µM) was 16.4% and the viability, T/C (second compound 3.16 µM, first compound 0.00999 µM) was 13.8%. The viability, T/C [25] was 10.8%, the viability, T/C (second compound 3.16 µM, first compound 0.0999 µM) was 5.28% and the viability, T/C [27] was 2.61%. The viability, T/C (second compound 10 µM, first compound 0.000999 µM) was 6.96%, the viability, T/C (second compound 10 µM, first compound 0.00316 µM) was 7.65% and the viability, T/C (second compound 10 µM, first compound 0.00999 µM) was 4.74%. For the same molecule, the viability, T/C [31] was 5.66%, the viability, T/C (second compound 10 µM, first compound 0.0999 µM) was 3.66% and the viability, T/C [33] was 1.35%.
